Source: US20250281498A1, “FUSED AMINO PYRIMIDINE COMPOUNDS FOR TREATMENT OF SYNUCLEINOPATHIES AND TDP-43 PROTEINOPATHIES” (Ovid Therapeutics Inc., priority 2024, published 2025)

Legend:
KCC2 = biological target: T1, KCC2 (Homo sapiens, UniProt Q9H2X9); assay: biotinylation, plasma membrane level of KCC2 in HEK-293 cells; format: cell-based; details: 15 min
T1 construct: expressed in transfected cells; host or cells: HEK-293 (ATCC CRL-1573)
T1 sequence (Q9H2X9 1-1116 isoform Q9H2X9-2): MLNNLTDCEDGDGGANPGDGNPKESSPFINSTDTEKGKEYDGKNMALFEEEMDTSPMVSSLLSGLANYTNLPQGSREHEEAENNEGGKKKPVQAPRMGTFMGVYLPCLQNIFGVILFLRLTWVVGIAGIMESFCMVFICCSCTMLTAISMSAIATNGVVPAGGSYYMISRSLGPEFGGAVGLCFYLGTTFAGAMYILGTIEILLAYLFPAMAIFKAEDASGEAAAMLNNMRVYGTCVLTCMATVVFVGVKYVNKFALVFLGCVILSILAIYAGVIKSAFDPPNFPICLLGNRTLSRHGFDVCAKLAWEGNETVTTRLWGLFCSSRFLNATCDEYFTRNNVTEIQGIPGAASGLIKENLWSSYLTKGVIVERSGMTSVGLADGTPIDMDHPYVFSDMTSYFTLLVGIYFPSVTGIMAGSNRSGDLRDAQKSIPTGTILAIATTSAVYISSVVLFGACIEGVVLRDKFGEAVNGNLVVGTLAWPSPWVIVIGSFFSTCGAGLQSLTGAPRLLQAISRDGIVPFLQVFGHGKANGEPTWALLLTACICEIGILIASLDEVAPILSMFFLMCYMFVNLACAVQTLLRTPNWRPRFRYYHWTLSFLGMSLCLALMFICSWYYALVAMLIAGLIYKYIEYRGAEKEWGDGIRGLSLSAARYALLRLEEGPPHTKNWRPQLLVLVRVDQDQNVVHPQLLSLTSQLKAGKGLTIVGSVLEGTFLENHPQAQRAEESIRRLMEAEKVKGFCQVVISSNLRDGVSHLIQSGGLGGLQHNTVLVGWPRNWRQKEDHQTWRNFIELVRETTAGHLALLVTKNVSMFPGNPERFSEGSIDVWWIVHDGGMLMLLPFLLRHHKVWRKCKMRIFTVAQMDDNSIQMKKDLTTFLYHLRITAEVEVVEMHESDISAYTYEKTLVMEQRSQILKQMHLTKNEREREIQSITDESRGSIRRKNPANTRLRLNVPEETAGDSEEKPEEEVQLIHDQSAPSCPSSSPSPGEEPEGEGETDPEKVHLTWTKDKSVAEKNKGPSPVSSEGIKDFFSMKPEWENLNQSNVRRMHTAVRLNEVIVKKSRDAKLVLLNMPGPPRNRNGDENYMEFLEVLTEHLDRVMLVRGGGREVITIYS
Description: Cell Culture and biotinylation. HEK-293 cells were purchased from ATCC (CRL-1573) and transfected with human KCC2 and GFP expression plasmids using Lipofectamine 2000. Cells were utilized for experimentation 48-72 h following transfection. Cells were biotinylated at 4° C. using NHS-Biotin. Following lysis and purification on immobilized avidin beads, cell surface and total fractions were subject to immunoblotting as outlined previously (Conway et al., 2017, supra).
The reliability of the biotinylation procedure was assessed via immunoblotting with antibodies against the cytosolic protein actin. Actin was present in the total lysates but was absent from the surface fractions (FIG. 2C).

hippocampal neurons = assay: whole cell patch-clamp recording of EGABA with imposed Cl− load in hippocampal neurons; format: cell-based, Sprague Dawley; details: incubated 1 h, 32 mM Cl− load, 5 min after break-in, controls −47.4±2.3
Description: Neuronal Cultures. Hippocampal neurons were prepared from Sprague Dawley E18 embryos and plated at 450,000 per dish and maintained at 37° C. in a humidified 5% CO2 incubator for 10-25 days before experimentation (Lee et al., Nat. Neurosci. 14, 736-743 (2011)).
Neuronal Patch clamp assays. Neuronal cell culture recordings were performed in bath saline at 34° C. For gramicidin perforated-patch experiments, pipettes contained (in mM): 140 KCl and 10 HEPES, pH 7.4 KOH. For whole-cell experiments, pipettes contained (in mM): 115 K-meth-SO4, 30 KCl, 2 Mg-ATP, 4 Na-ATP, 0.4 Na-GTP, and 10 HEPES, pH 7.4 KOH. Bath saline contained the following (in mM): 140 NaCl, 2.5 KCl, 2.5 CaCl2, 2.5 MgCl2, 10 HEPES, and 11 glucose, pH 7.4 NaOH (Kontou et al., 2021, supra). All compound solutions were applied to cells using a three-barreled 700 μm pipe positioned just above the cell (Warner Instruments). […] All voltages from whole-cell experiments were corrected offline using a calculated liquid junction potential value (13.6 mV) in Clampex (Molecular Devices). For gramicidin perforated-patch experiments, intracellular Cl^− values were back-calculated using measured EGABA values and the Nernst equation: […]
5 min after break-in, an initial EGABA value was determined and the effects of a subsequent 5 min incubation with VU0463271 was assessed.

[1] = PK studies, brain and plasma levels by LC-MS/MS; format: in vivo; details: mice
Description: PK studies. […] Plasma and brain samples were rapidly frozen on dry ice.
Drug accumulation in the brain was examined following SC injection (FIG. 4C; 50 mg/kg).

C[C@@H]1CN(c2nc3c(c(Nc4ccc(C5CCCCC5)cc4)n2)COC3)CCO1 [Compound A, (R)—N-(4-cyclohexylphenyl)-2-(2-methylmorpholino)-5,7-dihydrofuro[3,4-d]pyrimidin-4-amine]
level of KCC2 on the plasma membrane (surface/total) (KCC2; 0.3 μM): 94.5±8.4 % of control | level of KCC2 on the plasma membrane (surface/total) (KCC2; 3 μM): 104.7±8.4 % of control | basal EGABA (hippocampal neurons): -59.3 ± 2.1 mV | time at which accumulation in the brain was evident ([1]; 25 mg/kg IV bolus): ≤ 30 min | brain level 8 h later ([1]; SC 50 mg/kg): maintained | time at which accumulation in the brain was detected ([1]; SC 50 mg/kg): 30 min | time of maximal concentration in the brain ([1]; SC 50 mg/kg): 4 h
